# Data published in patent US20160289745A1, “NUCLEIC ACID ASSAY FOR DIAGNOSING OR […] PATHOGEN INFECTION IN A BODILY FLUID FROM A SUBJECT TREATED WITH AN ANTI-[…]” (priority 2012, published 2016).
# Key:
# [1] = test system: MTC strain (Mycobacterium tuberculosis); assay: Drug susceptibility testing of the patient's MTC strain; type: cell-based
# [2] = test system: Mycobacterium tuberculosis Complex (MTC); details: human, in vivo
SMILES,drug susceptibility testing result ([1]; MTC strain of patient 21),drug susceptibility testing result ([1]; MTC strain of patient 23),analysis of DNA in urine [2]
[H]/N=C(/N)N[C@H]1[C@H](O)[C@@H](O)[C@H](O[C@@H]2O[C@@H](C)[C@](O)(C=O)[C@H]2O[C@@H]2O[C@@H](CO)[C@H](O)[C@@H](O)[C@@H]2NC)[C@@H](N/C(N)=N\[H])[C@@H]1O [Streptomycin],resistance,resistance,–
NNC(=O)c1ccncc1 [Isoniazid],resistance,resistance,–
"Nc1ccc(C(=O)O)c(O)c1 [PAS, para-aminosalicylic acid]",–,–,negative
CCCc1cc(C(N)=S)ccn1 [Prothionamid],resistance,resistance,–
